Results on 26 compounds are retold here after ChEMBL document CHEMBL1140260, “Synthesis and SAR of diazepine and thiazepine TACE and MMP inhibitors” (Bioorg Med Chem Lett, 2005).

One data set has as its target T1, Interstitial collagenase (Homo sapiens, UniProt P03956).
T1 sequence (P03956 whole entry): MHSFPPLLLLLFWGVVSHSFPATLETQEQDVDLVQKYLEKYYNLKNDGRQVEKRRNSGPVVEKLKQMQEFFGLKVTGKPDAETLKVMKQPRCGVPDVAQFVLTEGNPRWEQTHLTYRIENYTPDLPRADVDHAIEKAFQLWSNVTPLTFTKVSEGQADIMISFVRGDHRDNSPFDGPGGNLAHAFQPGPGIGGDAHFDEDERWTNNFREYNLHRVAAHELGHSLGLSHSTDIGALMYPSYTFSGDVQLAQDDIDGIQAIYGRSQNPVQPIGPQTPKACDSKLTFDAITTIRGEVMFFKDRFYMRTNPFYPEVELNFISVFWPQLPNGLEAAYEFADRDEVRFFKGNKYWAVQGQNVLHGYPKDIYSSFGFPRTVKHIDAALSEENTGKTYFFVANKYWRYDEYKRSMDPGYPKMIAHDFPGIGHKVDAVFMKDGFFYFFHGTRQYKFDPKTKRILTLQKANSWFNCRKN
The data set can be described thus: (§1) Inhibitory concentration against matrix metalloprotease-1 at 1 uM.

Data set [1] has as its system THP-1. As to the kind of experiment: Percent inhibition against LPS stimulated THP-1 cellular assay at 1 uM. Type of data set: functional. As to conditions: Homo sapiens.
The target in the next data set is Collagenase 3 (Homo sapiens, UniProt P45452).
Data set [2] concerns the target Disintegrin and metalloproteinase domain-containing protein 17 (Homo sapiens, UniProt P78536). The data set can be described thus: Inhibitory concentration against TNF-alpha converting enzyme at 1 uM.
Data set [3] has as its system THP-1. As to the kind of experiment: Percent inhibition against LPS stimulated THP-1 cellular assay at 3 uM. The data set is classed as functional. As to conditions: Homo sapiens.
Data set [4] deals with Mus musculus. The data set can be described thus: Percent inhibition ofTNF-alpha release 1 hr after oral dosing at 25 mpk. Type of data set: functional.
The test system of data set [5] is Mus musculus. As to the kind of experiment: Percent inhibition ofTNF-alpha release 1 hr after oral dosing at 50 mpk. Type of data set: functional.
Data set [6] relates to Mus musculus. As to the kind of experiment: Percent inhibition ofTNF-alpha release 6 hr after oral dosing at 50 mpk. The data set is classed as functional.
The target of data set [7] is T2, Interstitial collagenase (Homo sapiens) (UniProt P03956).
T2 sequence (whole entry): T1 sequence (P03956 whole entry)
The data set can be described thus: Percent inhibition against matrix metalloprotease-1 at 1 uM.

Data set [8] has as its system THP-1. The data set can be described thus: Percent inhibition against LPS stimulated THP-1 cell assay at 3 uM. To be noted: Homo sapiens. The data set is classed as functional.
Data set [9] deals with T2, Interstitial collagenase (Homo sapiens). The data set is described as §1.
Data set [10] relates to Mus musculus. As to the kind of experiment: Percent reduction induced by compound in the mouse collagen induced arthritis model after 35 days of peroral dosing at 20 mpk, twice daily. The data set is classed as functional.
The subject of data set [11] is Mus musculus. As to the kind of experiment: Oral bioavailability of compound in mice. The data set is classed as functional, organism-based.
Data set [12] deals with Mus musculus. As to the kind of experiment: Half life of compound in mice after i.p. administration at 10 mg/kg. Type of data set: functional, organism-based. On the set-up: dose 10 mg/kg.
The species entered for data set [13] is Mus musculus. The data set can be described thus: Plasma clearance of compound in mice plasma. The data set is classed as functional, organism-based.
The subject of data set [14] is Mus musculus. The data set can be described thus: Half life of compound in mice after i.v. administration at 5 mg/kg. The data set is classed as functional, organism-based. On the set-up: dose 5 mg/kg.
The test system of data set [15] is Mus musculus. As to the kind of experiment: Half life of compound in mice after p.o. administration at 50 mg/kg.
A short description of data set [16]: Volume of distribution of compound in mice. To be noted: mouse, in vivo. The data set is classed as ADME, organism-based.

Chain of Disintegrin and metalloproteinase domain-containing protein 17 (P78536 whole entry, the tested form may be a part): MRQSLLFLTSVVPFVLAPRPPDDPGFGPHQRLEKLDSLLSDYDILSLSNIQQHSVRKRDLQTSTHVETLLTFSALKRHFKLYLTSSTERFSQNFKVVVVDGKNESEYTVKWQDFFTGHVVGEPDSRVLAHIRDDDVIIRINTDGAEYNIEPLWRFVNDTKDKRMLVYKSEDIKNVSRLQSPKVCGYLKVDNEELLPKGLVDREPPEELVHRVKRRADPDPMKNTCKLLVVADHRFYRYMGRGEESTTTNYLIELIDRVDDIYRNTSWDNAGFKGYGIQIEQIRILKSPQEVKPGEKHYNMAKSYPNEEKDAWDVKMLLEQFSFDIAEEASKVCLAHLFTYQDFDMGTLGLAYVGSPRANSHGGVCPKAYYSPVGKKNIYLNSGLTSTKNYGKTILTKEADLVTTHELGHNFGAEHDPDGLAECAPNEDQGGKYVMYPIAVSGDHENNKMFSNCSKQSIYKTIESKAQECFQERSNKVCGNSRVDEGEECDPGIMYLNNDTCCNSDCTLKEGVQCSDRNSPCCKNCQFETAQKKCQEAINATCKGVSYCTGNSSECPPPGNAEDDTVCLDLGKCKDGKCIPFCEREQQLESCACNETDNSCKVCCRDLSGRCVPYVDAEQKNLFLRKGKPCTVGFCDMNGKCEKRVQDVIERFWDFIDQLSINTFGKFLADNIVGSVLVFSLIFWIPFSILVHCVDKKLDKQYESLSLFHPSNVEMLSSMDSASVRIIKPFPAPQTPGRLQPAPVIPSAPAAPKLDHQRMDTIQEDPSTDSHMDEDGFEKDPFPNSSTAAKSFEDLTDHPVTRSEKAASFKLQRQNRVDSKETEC
Description for Collagenase 3: Inhibitory concentration against Matrix metalloprotease-13 at 1 uM

On to `CC#CCOc1ccc(S(=O)(=O)N2CCN(C(=O)CC)CCC2C(=O)NO)cc1` (stereo not drawn), for which the results for the IC50 (against Interstitial collagenase; at Collagenase 3; in data set [2]) were 207 nM, 20 nM and 19 nM, respectively. For the same compound, 1 µM produced 63% inhibition in the data set on THP-1 [1].

As to `CC#CCOc1ccc(S(=O)(=O)N2CCN(C(=O)C(C)C)CCC2C(=O)NO)cc1` (stereo not drawn), the values for the IC50 (against Interstitial collagenase; against Collagenase 3; in [2]) were 142 nM, 9 nM and 23 nM, respectively. In addition, in the data set with THP-1 [3], the inhibition – broadly, how much of the control response was suppressed – at 3 µM amounted to 95%.

As for `CC#CCOc1ccc(S(=O)(=O)N2CCCN(S(=O)(=O)CCC)CC2C(=O)NO)cc1` (stereo not drawn), in the data set on Mus musculus [4], the inhibition in vivo (usually the percentage by which the read-out fell short of the control) at 25 mg/kg stood at 0%. Besides, the figures for the IC50 (on Interstitial collagenase; at Collagenase 3; in data set [2]) were 1140 nM, 140 nM and 30 nM, respectively. Moreover, in the data set on THP-1 [3], testing at 3 µM gave an inhibition of 74%.

For `CC#CCOc1ccc(S(=O)(=O)N2CCN(C(=O)c3ccccc3)CCC2C(=O)NO)cc1` (stereo not drawn), the inhibition in vivo at 50 mg/kg in the data set on Mus musculus [5] turned out to be 35%; with Mus musculus [6] it was 0%.

In [7], `CC#CCOc1ccc(S(=O)(=O)N2CCCN(C(=O)CCCN(C)C)CC2C(=O)NO)cc1` (stereo not drawn) had an inhibition of 19%. The IC50 (in general, the concentration that inhibits the measured activity by half) on Collagenase 3 turned out to be 395 nM; in [2], 75 nM. In addition, the inhibition at 3 µM with THP-1 [3] came out at 33%.

Consider `CC#CCOc1ccc(S(=O)(=O)N2CCCSCC2C(=O)NO)cc1` (stereo not drawn), for which the IC50 at Interstitial collagenase was 408 nM; against Collagenase 3 it was 36 nM; in data set [2], 20 nM. In the data set on Mus musculus [5], this compound returned an inhibition in vivo at 50 mg/kg of 24%. This compound also showed an inhibition at 3 µM in the data set with THP-1 [3] of 80%.

As to `CC#CCOc1ccc(S(=O)(=O)N2CCCNCC2C(=O)NO)cc1` (stereo not drawn), in the data set with Mus musculus [4], the inhibition in vivo at 25 mg/kg was determined as 4%. Also, the values for the IC50 (against Interstitial collagenase; on Collagenase 3; in [2]) were 576 nM, 225 nM and 11 nM, respectively. Also, testing at 3 µM with THP-1 [3] gave an inhibition of 43%.

In turn, `CC#CCOc1ccc(S(=O)(=O)N2CCCN(C(=O)NCCCCCC)CC2C(=O)NO)cc1` (stereo not drawn) had an inhibition in [7] of 34%. Also, the values for the IC50 (at Collagenase 3; in [2]) were 307 nM and 14 nM, respectively. The compound further gave an inhibition at 3 µM in the data set on THP-1 [3] of 36%.

With `CC#CCOc1ccc(S(=O)(=O)N2CCCN(C(=O)CN)CC2C(=O)NO)cc1` (stereo not drawn), the results for the IC50 (on Interstitial collagenase; on Collagenase 3; in [2]) were 3030 nM, 1060 nM and 12 nM, respectively. In the data set on THP-1 [3], this compound came in with an inhibition at 3 µM of 62%.

`CC#CCOc1ccc(S(=O)(=O)N2CCCN(C(=O)OC(C)(C)C)CC2C(=O)NO)cc1` (stereo not drawn) registered an inhibition in [7] of 26%. Further, the 50% inhibitory concentration (IC50) at Collagenase 3 was 363 nM; in data set [2] it was 35 nM. In addition, the inhibition at 3 µM in the data set with THP-1 [8] amounted to 13%.

For `CC#CCOc1ccc(S(=O)(=O)N2CCN(CC)CCC2C(=O)NO)cc1` (stereo not drawn), the results for the IC50 (against Interstitial collagenase; against Collagenase 3; in [2]) were 285 nM, 17 nM and 37 nM, respectively. In the data set with THP-1 [1], testing at 1 µM gave an inhibition of 57%.

Regarding `CC#CCOc1ccc(S(=O)(=O)N2CCN(Cc3ccccc3)CCC2C(=O)NO)cc1` (stereo not drawn), the figures for the inhibition in vivo at 50 mg/kg in the data set on Mus musculus [5] and in the data set on Mus musculus [6] were 17% and 0%, respectively.

For the compound `CC#CCOc1ccc(S(=O)(=O)N2CCN(C(=O)COC)CCC2C(=O)NO)cc1` (stereo not drawn), the IC50 against Interstitial collagenase came to 277 nM; at Collagenase 3, 31 nM; in data set [2], 15 nM. Also, the inhibition at 3 µM in the data set on THP-1 [3] worked out at 79%.

`CC#CCOc1ccc(S(=O)(=O)N2CCCN(S(=O)(=O)c3ccccc3)CC2C(=O)NO)cc1` (stereo not drawn) showed an inhibition in vivo at 25 mg/kg in the data set with Mus musculus [4] of 46%. The inhibition in data set [7] turned out to be 39%. The IC50 against Collagenase 3 is 88 nM; in data set [2], 68 nM. The inhibition at 3 µM with THP-1 [3] turned out to be 62%.

`CC#CCOc1ccc(S(=O)(=O)N2CCCN(C(C)=O)CC2C(=O)NO)cc1` (stereo not drawn) showed an inhibition in vivo at 25 mg/kg in the data set with Mus musculus [4] of 10%. Moreover, the half-maximal inhibitory concentration (IC50) on Collagenase 3 turned out to be 305 nM; in data set [2], 4 nM. In the data set on THP-1 [3], this compound had an inhibition at 3 µM of 74%.

The compound `CC#CCOc1ccc(S(=O)(=O)N2CCCN(C)CC2C(=O)NO)cc1` (stereo not drawn) showed an inhibition in data set [9] of 36%. Also, the IC50 worked out at 180 nM against Collagenase 3 and 24 nM in data set [2]. This compound gave an inhibition at 3 µM in the data set on THP-1 [3] of 42%.

Regarding `CC#CCOc1ccc(S(=O)(=O)N2CCCN(S(C)(=O)=O)CC2C(=O)NO)cc1` (stereo not drawn), the inhibition in vivo at 25 mg/kg in the data set with Mus musculus [4] was determined as 35%. In addition, in data set [7], the inhibition was found to be 40%. Moreover, the IC50 on Collagenase 3 was 128 nM; in data set [2] it was 5 nM. In the data set on THP-1 [3], the inhibition at 3 µM came out at 71%.

With `CC#CCOc1ccc(S(=O)(=O)N2CCCN(C(=O)c3cccs3)CC2C(=O)NO)cc1` (stereo not drawn), the IC50 against Collagenase 3 stood at 142 nM; in data set [2], 10 nM. In the data set on THP-1 [3], this compound displayed an inhibition at 3 µM of 41%.

Consider `CC#CCOc1ccc(S(=O)(=O)N2CCSCCC2C(=O)NO)cc1` (stereo not drawn), for which the IC50 is 171 nM on Interstitial collagenase and 11 nM against Collagenase 3. Besides, the inhibition in vivo at 50 mg/kg was 70% in the data set with Mus musculus [5] and 41% in the data set with Mus musculus [6].

`CC#CCOc1ccc(S(=O)(=O)N2CCNCCC2C(=O)NO)cc1` (stereo not drawn) displayed a Reduction in the data set on Mus musculus [10] of 56%. This compound also had a bioavailability with Mus musculus [11] of 18%. Moreover, the inhibition in vivo at 50 mg/kg in the data set on Mus musculus [5] worked out at 97%; in the data set on Mus musculus [6] it was 62%. Moreover, the T1/2 with Mus musculus [12] turned out to be 2.64 h; with Mus musculus [14] it was 1.43 h; in the data set with Mus musculus [15], 0.86 h. This compound came in with an IC50 against Collagenase 3 of 32 nM. Besides, in the data set listed under Mus musculus [13], the CL (mL.min-1.kg-1) stood at 64.3. The Vd (usually a proportionality between amount in the body and measured concentration, not a real space) in data set [16] is 2.49 L/kg.

As to `CC#CCOc1ccc(S(=O)(=O)N2CCCN(C(=O)CNC(=O)OC(C)(C)C)CC2C(=O)NO)cc1` (stereo not drawn), the inhibition in vivo at 25 mg/kg in the data set with Mus musculus [4] worked out at 68%. Further, the IC50 is 4580 nM against Interstitial collagenase, 446 nM against Collagenase 3 and 7 nM in data set [2]. This compound had an inhibition at 3 µM in the data set on THP-1 [3] of 71%.

As to `CC#CCOc1ccc(S(=O)(=O)N2CCCN(Cc3ccccc3)CC2C(=O)NO)cc1` (stereo not drawn), the results for the IC50 (against Interstitial collagenase; against Collagenase 3; in data set [2]) were 212 nM, 52 nM and 61 nM, respectively. This compound also returned an inhibition at 3 µM with THP-1 [3] of 41%.

Regarding `CC#CCOc1ccc(S(=O)(=O)N2CCCS(=O)(=O)CC2C(=O)NO)cc1` (stereo not drawn), the figures for the IC50 (at Interstitial collagenase; on Collagenase 3; in [2]) were 334 nM, 311 nM and 28 nM, respectively. This compound also gave an inhibition in vivo at 50 mg/kg in the data set on Mus musculus [5] of 77%.

For the compound `CC#CCOc1ccc(S(=O)(=O)N2CCN(C(=O)OC(C)(C)C)CCC2C(=O)NO)cc1` (stereo not drawn), the inhibition in vivo at 50 mg/kg was determined as 88% in the data set with Mus musculus [5] and 43% with Mus musculus [6].

Consider `CC#CCOc1ccc(S(=O)(=O)N2CCS(=O)(=O)CCC2C(=O)NO)cc1` (stereo not drawn), for which the IC50 came to 114 nM on Interstitial collagenase, 8 nM against Collagenase 3 and 19 nM in [2]. The compound further yielded an inhibition in vivo at 50 mg/kg in the data set with Mus musculus [5] of 94%. In the data set with THP-1 [3], 3 µM produced 92% inhibition.

For `CC#CCOc1ccc(S(=O)(=O)N2CCN(C)CCC2C(=O)NO)cc1` (stereo not drawn), the inhibition in vivo at 50 mg/kg was 32% in the data set on Mus musculus [5] and 39% in the data set with Mus musculus [6].
